US11883404B2, “Preparation and composition for treatment of malignant tumors” (TAIHO PHARMACEUTICAL CO., LTD., priority 2016, dated 2024)
Structures can show the parent of a compound that is named as a salt. Where two headings read alike, the source gives them in different places.

Legend:
phosphorylated AKT = assay: Western blot, intracellular phosphorylation of AKT in AN3CA (Example 11); format: cell-based, human; details: Compound 1 10 and 100 nM, MK2206 dihydrochloride 5 μM
Method: The intracellular phosphorylation levels of ERK, AKT, mTOR and S6 were detected by Western blot method. […] Likewise, MK2206 dihydrochloride was added at a final concentration of 5 μM (in terms of a free form), and everolimus was added at a final concentration of 3 nM. Each medicine alone and each combination were studied. DMSO was added as a control at a final concentration of 0.2%. […] The amounts of phosphorylated AKT, phosphorylated ERK, phosphorylated mTOR, phosphorylated S6 and GAPDH were detected using Western blot according to an ordinary method.

[1] = test system: human endometrial cancer line AN3CA; assay: Apoptosis induction, CellEvent Caspase-3/7 Green Detection, Compound 1 and MK2206 (Example 9); format: cell-based; details: Compound 1 10 nM, MK2206 dihydrochloride 300 nM (free form), 24 hours
Method: (§1) The presence or absence of induction of apoptosis by concomitant use was observed using CellEvent™ Caspase-3/7 Green Detection Reagent (Invitrogen Corp.). […] The concentration of MK2206 dihydrochloride was set to 300 nM (in terms of a free form). These medicines used alone (DMSO was added as a control) or concomitantly were comparatively studied. […] Apoptosis was detected by adding 1 μL of CellEvent™ Caspase-3/7 Green Detection Reagent (Invitrogen Corp.) solution per well to the cells, incubating the cells at 37° C. for 30 minutes, and then measuring cell images in the bright field and fluorescence signals, under a fluorescence microscope. The observed fluorescence signals indicate the induction of Caspase 3/7, and the amplitude of the signals represents the presence or absence of induction of apoptosis-like cell death.

[2] = test system: human gastric cancer line SNU-16; assay: Antitumor effect of Compound 1 and paclitaxel on subcutaneously implanted SNU-16 tumor in nude mouse (Example 2); details: for T/C (%): Day 15
[3] = test system: human endometrial cancer line AN3CA; assay: Antitumor effect of Compound 1 and Compound 2 on subcutaneously implanted AN3CA tumor in nude mouse (Example 16); format: in vivo, BALB/cAJcl-nu/nu mice; details: alone, Day 15
Method: The day at which the grouping was carried out was defined as Day 0. TV(mm^3)=(Major axis×Minor axis^2)/2(units for the major axis and the minor axis were mm).
The dose of Compound 2 was set in consideration of well tolerated dose for nude mice, etc.
(§2) RTV was calculated according to the expression given below from TV values on the day of measurement and on the day of grouping. […] RTV=(TV on the day of measurement)/(TV on the day of grouping) T/C (%)=(Average RTV in each medicine administration group on the day of assessment)/(Average RTV in the control group on the day of assessment)×100

[4] = test system: human endometrial cancer line AN3CA; assay: Antitumor effect of Compound 1 and gemcitabine on subcutaneously implanted AN3CA tumor in nude mouse (Example 4); format: in vivo, BALB/cAJcl-nu/nu mice; details: Day 15
Method: Gemcitabine was administered at 100 mg/kg/day from the tail vein at Day 1 and Day 8.

[5] = test system: human endometrial cancer line AN3CA; details: alone, Day 15
Method: An engrafted tumor was removed from the mice, chopped into fragments of 2 mm square, and then subcutaneously implanted to 6-week-old female BALB/cAJcl-nu/nu mice.
Everolimus was orally administered each day at 2 mg/kg/day for 14 days.

[6] = test system: human endometrial cancer line AN3CA; details: for T/C (%): Day 11
[7] = test system: human gastric cancer line SNU-16; format: in vivo; details: alone
Method: The day at which the grouping was carried out was defined as Day 0. TV (mm^3)=(Major axis×Minor axis^2)/2(units for the major axis and the minor axis were mm).
as §2

phosphorylated mTOR = assay: Western blot, intracellular phosphorylation of mTOR in AN3CA (Example 11); format: cell-based, human; details: everolimus 3 nM alone
Method: The intracellular phosphorylation levels of ERK, AKT, mTOR and S6 were detected by Western blot method. […] Likewise, MK2206 dihydrochloride was added at a final concentration of 5 μM (in terms of a free form), and everolimus was added at a final concentration of 3 nM. Each medicine alone and each combination were studied. DMSO was added as a control at a final concentration of 0.2%.
Then, cell lysates were prepared using RIPA Buffer [composition: 50 mM Tris-HCl (pH 8.0), 150 mM NaCl, 5 mM EDTA, 1% (w/w) Nonidet P-40, 0.1% (w/w) sodium deoxycholate, and 0.1% (w/w) SDS]. The amounts of phosphorylated AKT, phosphorylated ERK, phosphorylated mTOR, phosphorylated S6 and GAPDH were detected using Western blot according to an ordinary method.

[8] = test system: Human lung cancer line HCC4006; details: 100 ng/mL FGF7, 72 hours
Method: (§3) Cell survival rates were measured using CellTiter-Glo. The cells were recovered by an ordinary method, suspended in the above medium containing 10% fetal bovine serum, and seeded in a 96-well plate. The number of cells seeded per well was set to 2000 cells/70 μL. […] In order to study effects on the activated FGF/FGFR pathway in the cells, a ligand FGF2 or FGF7 was added to the cells and compared with non-addition. […] DMSO was added to a control well, and 10 ng/mL FGF2 or 100 ng/mL FGF7 was added to the medium.
(§4) The cells were incubated at 37° C. for 72 hours under 5% CO2. Then, 100 μL of CellTiter-Glo solution was added to each well, and the cells were incubated at room temperature for 10 minutes, followed by the measurement of chemiluminescence intensity using a plate reader (ARVO). Growth inhibitory effects relative to the vehicle group were calculated from the obtained data.

[9] = test system: Human lung cancer line NCI-H1650; details: 100 ng/mL FGF7, 72 hours
Method: as §3, §4

[10] = test system: human small cell lung cancer cell line DMS 114; assay: Cell survival rate assay (CellTiter-Glo 2.0), IC50 and combination index of Compound 1 and Compound 2 (Example 15); format: cell-based; details: each medicine alone, 72 hours
Method: A human small cell lung cancer cell line DMS 114 was cultured using a Waymouth's medium containing 10% fetal bovine serum. The cells were maintained at 37° C. under 5% CO2 and subcultured at a ratio of 1:5 to 1:20 by 1 to 2 passages per week.
Cell survival rate was measured using CellTiter-Glo 2.0 (produced by Promega Corp.). The cells were collected by an ordinary method, then suspended in a Waymouth's medium containing 10% fetal bovine serum, and seeded in a 96-well plate. The number of cells seeded per well was set to 2000 cells/50 μL. […] In addition to groups of each medicine alone, groups of both the medicines simultaneously added were prepared in parallel. […] Cell survival rates were calculated by adding 50 μL of CellTiter-Glo 2.0 solution to each well, incubating the cells at room temperature for 15 minutes, and then measuring the chemiluminescence intensity of each well using a plate reader (FlexStation 3). The cell survival rates in medicine addition were calculated as a ratio vs. the control group (100%) according to the following equation: Cell survival rate (%)=(Chemiluminescence intensity at the time of medicine addition)/(Chemiluminescence intensity of the control group)×100
Also, Fa (fraction of affect) values were calculated by subtracting a 1/100 value of the cell survival rate from 1. […]

[11] = test system: human endometrial cancer line AN3CA; assay: Apoptosis induction, CellEvent Caspase-3/7 Green Detection, Compound 1 and Compound 2 (Example 14); format: cell-based; details: Compound 1 100 nM, Compound 2 100 nM, 24 hours
Method: as §1, with “Compound 2” for “MK2206 dihydrochloride”, “100 nM.” for “300 nM (in terms of a free form).”, “6” for “1”

[12] = Compound 1 15 mg/kg/day orally once a day for 14 days, alone

SMILES: NC1(c2ccc(-c3nc4ccn5c(=O)[nH]nc5c4cc3-c3ccccc3)cc2)CCC1 [MK2206 dihydrochloride, 8-[4-(1-aminocyclobutyl)phenyl]-9-phenyl-1,2,4-triazolo[3,4-f][1,6]naphthyridin-3(2H)-one]
- AKT phosphorylation (phosphorylated AKT): inhibited
- induction of cell death (Caspase 3/7 fluorescence signals) [1]: hardly found

SMILES: CC(=O)O[C@H]1C(=O)[C@@]2(C)[C@H]([C@H](OC(=O)c3ccccc3)[C@]3(O)C[C@H](OC(=O)[C@H](O)[C@@H](NC(=O)c4ccccc4)c4ccccc4)C(C)=C1C3(C)C)[C@]1(OC(C)=O)CO[C@@H]1C[C@@H]2O [paclitaxel, reference compound]
- body weight change of the mice ([2]; paclitaxel 60 mg/kg, concomitant use group vs each medicine group): transient decrease in body weight
- T/C (%) ([2]; paclitaxel single dose 60 mg/kg/day tail vein at Day 1, alone): 12.9%

SMILES: C=CC(=O)N1CC[C@H](n2nc(C#Cc3cc(OC)cc(OC)c3)c3c(N)ncnc32)C1 [Compound 1, (S)-1-(3-(4-Amino-3-((3,5-dimethoxyphenyl)ethynyl)-1H-pyrazolo[3,4-d]pyrimidin-1-yl)pyrrolidin-1-yl)prop-2-en-1-one]
- T/C (%) ([3]; Compound 1 15 mg/kg/day orally once a day for 14 days): 22.1%
- T/C (%) ([4]; Compound 1 15 mg/kg/day orally each day for 14 days, alone): 42.1%
- T/C (%) ([5]; Compound 1 15 mg/kg/day orally each day for 14 days): 33.3%
- T/C (%) ([5]; Compound 1 50 mg/kg/day orally each day for 14 days): 12.6%
- T/C (%) ([2]; Compound 1 5 mg/kg/day orally once a day for 14 days, alone): 83.6%
- T/C (%) [2, 12]: 69.0%
- T/C (%) [6, 12]: 46.0%
- T/C (%) ([7]; Compound 1 5 mg/kg/day orally once a day for 14 days, day of assessment (Day 15)): 83.6%
- T/C (%) ([7]; Compound 1 15 mg/kg/day orally once a day for 14 days, Day 15): 69.0%

SMILES: N.N.[Cl][Pt][Cl] [cisplatin]
- T/C (%) ([6]; cisplatin 7 mg/kg/day tail vein at Day 1, alone): 53.0%
- body weight change of the mice ([6]; mouse, in vivo): transient decrease in body weight

SMILES: CO[C@H]1C[C@@H]2CC[C@@H](C)[C@@](O)(O2)C(=O)C(=O)N2CCCC[C@H]2C(=O)O[C@H]([C@H](C)C[C@@H]2CC[C@@H](OCCO)[C@H](OC)C2)CC(=O)[C@H](C)/C=C(\C)[C@@H](O)[C@@H](OC)C(=O)[C@H](C)C[C@H](C)/C=C/C=C/C=C/1C [everolimus, reference compound]
- T/C (%) ([5]; everolimus 2 mg/kg/day orally each day for 14 days): 27.1%
- mTOR phosphorylation (phosphorylated mTOR): inhibited

SMILES: COc1cc2ncnc(Nc3ccc(F)c(Cl)c3)c2cc1OCCCN1CCOCC1 [gefitinib]
- drug effect of gefitinib on addition of the FGFR ligand FGF7 [8]: attenuated
- drug effect of gefitinib on addition of the FGFR ligand FGF7 [9]: attenuated

SMILES: Nc1ccn([C@@H]2O[C@H](CO)[C@@H](O)C2(F)F)c(=O)n1 [gemcitabine, reference compound]
- T/C (%) ([4]; gemcitabine 100 mg/kg/day tail vein at Day 1 and Day 8, alone): 75.5%

SMILES: CC1(O)CC(N)(c2ccc(-c3nc4n(c3-c3ccccc3)COc3ccncc3-4)cc2)C1 (stereo not drawn) [Compound 2, trans-3-amino-1-methyl-3-(4-(3-phenyl-5H-imidazo[1,2-c]pyrido[3,4-e][1,3]oxazin-2-yl)phenyl)cyclobutanol]
- T/C (%) ([3]; Compound 2 4 mg/kg/day orally once a day for 14 days): 58.6%
- T/C (%) ([3]; Compound 2 8 mg/kg/day orally once a day for 14 days): 55.4%
- IC50 [10]: 4.86 µM
- induction of cell death (Caspase 3/7 fluorescence signals) [11]: hardly found
